Reference: patent publication US20240207258A1, “HETEROCYCLIC PDK1 INHIBITORS FOR USE TO TREAT CANCER” (Viracta Therapeutics, Inc., priority 2015, published 2024)

What was measured:
[1] = test system: P-AKT; assay: Western blot, AKT phosphorylation in A20 cells; assay type: cell-based, murine
Protocol: (§1) For phosphoprotein analyses, cells were seeded into 10 cm petri dishes (10×10^6 cells/dish) in media supplemented with 10% FBS and penicillin/streptomycin. After cells recovered for 1 hr at 37° C., compounds were added in DMSO (0.1% final) and incubated for 4 or 24 hr at 37° C. Cells were then harvested by centrifugation and washed with cold PBS. Cell pellets were resuspended in cell extraction buffer (Invitrogen) supplemented with 2×Halt™ protease and phosphatase inhibitor cocktail (Thermo Scientific), 2 mM sodium orthovanadate, 10 mM EDTA and 4 mM PMSF. Samples were lysed by sonication and incubated on ice for 30 min. Cell debris was removed by centrifugation and protein concentrations were determined using the BCA Protein Assay Kit (Pierce). The clarified lysate was diluted in LDS sample buffer with reducing agent (Life Technologies). […] Gels were run at 110 V and proteins were transferred to a PVDF membrane. Membranes were blocked in TBS blocking buffer (Li-Cor Biosciences) for 1 hr. Primary antibodies (Cell Signaling, Sant Cruz Biotechnology) were added (1:1,000 dilution) in blocking buffer with 0.1% Tween-20 and 1:20,000 dilution of β-actin antibody and incubated for 14 hr at 4° C. Blots were washed in TBS-T. Label-conjugated goat anti-rabbit secondary antibody (IRdye® 800CW; Li-Cor Biosciences) was added in blocking buffer with 0.1% Tween-20 and 0.02% SDS and incubated for 1 hr. After washing in TBS-T followed by TBS, membranes were scanned on an Odyssey imaging system (Li-Cor Biosciences). Bands were quantitated using ImageJ.

[2] = test system: MV4-11 cells; assay: Induction of apoptosis (Annexin V / propidium iodide flow cytometry); assay type: cell-based, human
Protocol: Cells were seeded in a six-well tissue culture plate in 3 mL complete growth medium (3×10^5 cells/well) and allowed to equilibrate for 1 hr at 37° C. in a humidified incubator with 5% CO2. DMSO (control), test compound, or doxorubicin was added to the wells (0.1% final DMSO concentration). Cells were returned to the incubator for 24 hrs. On the day of analysis 1×10^5 cells were labeled according to manufacturer's instructions and analyzed by flow cytometry (BD FACSCaalibur™, GH) to determine the percent of apoptotic cells (annexin V positive, AV+) and/or apoptotic dead cells (AV+ and propidium iodide positive (PI+)).

[3] = test system: P-PDK1; assay: Western blot, PDK1 phosphorylation in C1498 cells; assay type: cell-based, murine; details: C1498, 30-100 nM range
Protocol: as §1, with “Blots were washed in TBS-T. Label-conjugated goat anti-rabbit secondary antibody (IRdye® 800CW; Li-Cor Biosciences) was added in blocking buffer with 0.1% Tween-20 and 0.02% SDS and incubated for 1 hr. After washing in TBS-T followed by TBS, membranes were scanned on an Odyssey imaging system (Li-Cor Biosciences).” left out

[4] = test system: pPDK1; assay: Western blot, PDK1 phosphorylation in KG-1 cells; assay type: cell-based; details: Homo sapiens; KG-1, 100 nM; read-out: inhibition of pPDK1 levels
Protocol: For phosphoprotein analyses, cells were seeded into 10 cm petri dishes (10×10^6 cells/dish) in media supplemented with 10% FBS and penicillin/streptomycin. After cells recovered for 1 hr at 37° C., compounds were added in DMSO (0.1% final) and incubated for 4 or 24 hr at 37° C. Cells were then harvested by centrifugation and washed with cold PBS. Cell pellets were resuspended in cell extraction buffer (Invitrogen) supplemented with 2×Halt™ protease and phosphatase inhibitor cocktail (Thermo Scientific), 2 mM sodium orthovanadate, 10 mM EDTA and 4 mM PMSF. Samples were lysed by sonication and incubated on ice for 30 min. Cell debris was removed by centrifugation and protein concentrations were determined using the BCA Protein Assay Kit (Pierce). The clarified lysate was diluted in LDS sample buffer with reducing agent (Life Technologies). After heating to 70° C. samples were cooled and loaded onto 4-12% Bis-Tris gels (Life Technologies) at 50 μg/well. Gels were run at 110 V and proteins were transferred to a PVDF membrane. Membranes were blocked in TBS blocking buffer (Li-Cor Biosciences) for 1 hr. Primary antibodies (Cell Signaling, Sant Cruz Biotechnology) were added (1:1,000 dilution) in blocking buffer with 0.1% Tween-20 and 1:20,000 dilution of β-actin antibody and incubated for 14 hr at 4° C. […] Bands were quantitated using ImageJ.

## CNc1n[nH]c2ncc(-c3ccc(CNc4ncc(C#N)nc4C(=O)N[C@@H](C)c4ccc(F)c(F)c4)cc3)cc12 [Compound 2, 6-Cyano-3-[4-(3-methylamino-1H-pyrazolo[3,4-b]pyridin-5-yl)-benzylamino]-pyrazine-2-carboxylic acid [1-(3,4-difluoro-phenyl)-ethyl]-amide]
[1]
  P-AKT levels: sensitive
[2]; 100 nM
  apoptosis at 100 nM: induces apoptosis
[2]; 24 hours
  apoptosis after 24 hours: substantial apoptosis
[3]
  P-PDK1 inhibition: ~80%

## C[C@H](NC(=O)c1nc(C#N)cnc1NCc1ccc(-c2cnc3[nH]nc(N)c3n2)cc1)c1ccc(F)c(F)c1 [Compound 1, 3-[4-(3-Amino-1H-pyrazolo[3,4-b]pyrazin-5-yl)-benzylamino]-6-cyano-pyrazine-2-carboxylic acid [1-(3,4-difluoro-phenyl)-ethyl]-amide]
[4]
  inhibition at 0.1 µM: > 80%
